Laboratory results published in patent US20210393549A1, “New use of R-enantiomer of adrenergic beta 2 receptor agonists for treatment of inflammatory bowel disease and its extra intestinal manifestations” (priority 2018, published 2021).
Read-outs that look alike come from different tables or passages of the source.

Assays:
[1] = tested on: DSS induced acute colitis; conditions: for Hist score (histological score): epithelium 0-4 plus infiltration 0-4; for Hist score (histological score) / Col Length (colon length): tenth day; for Hist score (histological score) / FOB (fecal occult blood) / Weight / DAI (disease active index) / Col Length (colon length): 1 mg/kg (R-B, S-B 10 mg/kg; RS-C 2 mg/kg); for Hist score (histological score) / FOB (fecal occult blood) / Weight / Col Length (colon length): mean ± SD; for FOB (fecal occult blood): grade 0, 2, 4; for FOB (fecal occult blood) / Weight / Col Length (colon length): i.g. daily 8 days; for DAI (disease active index): score 0 to 12, i.g. daily 8 days from 2nd day of DSS, n=5; for colon histology (H&E), in words: Example 1, compared with untreated DSS mice
Text: In one embodiment, IBD was induced in mice by add DSS into drink water for 7 days. […] (Cooper, S. et al., Clinic pathologic study of dextran sulfate sodium experimental murine colitis, Laboratory Investigation, vol. 69, no. 2, p. 238-249, 1993)
The mice were scarified at day 10th for anatomy and histology evaluations. […] Each of the above histological features was scored individually and added together which is then collectively expressed as “histological score”, for quantitative evaluation (Cooper, S. et al., above).
Male C57BL mice (8-10 weeks, 18-20 g) were grouped into control (drinking water only), DSS and DSS plus treatment groups (n=5). Acute colitis was induced by feeding mice with 2% (w/v) dextran sulfate sodium (DSS) (molecular mass 36-50 kDa) added to the drinking water given ad libitum for 7 days. At the end of seventh day, DSS was removed and animals received only drinking water for 2 days. The animals were euthanized for anatomical and histological examination at the tenth day after DSS ingestion.
R-salbutamol (R-S) (1 mg/kg, S-salbutamol (S-S) (1 mg/kg), R-terbutaline (R-T) (1 mg/kg), S-terbutaline (S-T) (1 mg/kg), R-bambuterol (10 mg/kg), S-bambuterol (S-B) (10 mg/kg), R-clenbuterol (R-C) (1 mg/kg), RS-clenbuterol (RS-C) (2 mg/kg) were administered i.g. daily, starting from the 2nd day of DSS induction for consecutive 8 days. Dexamethasone (Dex), 1 mg/kg) was used as a reference drug.
Evaluation of disease symptoms and histological changes Disease activity index (DAI): Animals were monitored daily for weight, water/food consumption, morbidity, stool consistency and fecal blood. […] The colon length was recorded as an indicator of inflammation. The entire colon was cut open longitudinally and gently flushed with sterile phosphate-buffered saline (PBS) to remove any traces of feces for pathology preparation. Colon segments were fixed in 10% neutral buffered formalin. Tissues were embedded in paraffin, sectioned, mounted on slides. H&E-stained paraffin section images were acquired. Pathological evaluation was conducted in a blinded manner.
Histological Score: the scores were given as follows: epithelium, 0=normal morphology, 1=loss of goblet cells, 2=loss of goblet cells in large areas, 3=loss of crypts, and 4=loss of crypts in large areas; and inflammation cells infiltration, 0=no infiltrate, 1=infiltrate around the crypt basis, 2=infiltrate reaching the muscularis mucosae, 3=extensive infiltration reaching the muscularis mucosae and thickening of the mucosa with abundant edema, and 4=infiltration of the submucosa. Data were presented as mean±the standard deviation (SD).

[2] = tested on: DSS induced sub-acute colitis; assay type: in vivo; parameters: DAI (disease active index) / FOB (fecal occult blood) / Hist score (histological score): scale not given here; Weight / Col Length (colon length): unit not given here
Text: This invention also disclosed the used of R-salbutamol for treatment of sub acute or chronic phases of IBD. In one embodiment, IBD was induced by DSS as mentioned above, along with the treatment of R-salbutamol, at day 7th, DSS was removed and replaced with drinking water for additional 2 weeks. The disease active index (DAI) of mice was examined and evaluated periodically. The mice were scarified for pathological and histological evaluations at day of 23rd. In DSS induce IBD mice, there were significant loss of weight and fecal occult blood at day 14th and 22nd. The overall condition of colitis was severe although there was slightly improvement comparing the day 7th. The colon-rector length was significant shortened, and histological score were significant higher from control. In mice with DSS induced colitis, there were significant mononuclear leucocytes infiltration, few newly grew crypts with architectural disarray, denegation of epithelia, mucosa aberrant. There was also deep mucosal lymphocytosis, destruction of lamina propria and sometimes, transmural inflammation.
Same as example 1, except • 1), Three weeks' study with one week treatment.
DSS and all the treatment was removed and replaced with drinking water at the end of 1st week. Mice were given drink water and food ad libitum for additional 2 weeks.

[3] = tested on: DSS induced sub-acute colitis; experiment: Prolonged (two weeks) treatment in DSS induced sub-acute colitis; assay type: in vivo, mice; conditions: evaluation at 23rd day, salbutamol 1 mg/kg, bambuterol 10 mg/kg
Text: Same as example 2, except. 1), Two Weeks Treatment within a Three Weeks of Study
DSS was removed from drinking water at the end of 1st week. The treatments were started at 1st day for consecutive 14 days (2 weeks). Only drinking water given for the 3rd week. The evaluation and examination were made at 23rd day as did in example 1.

[4] = tested on: knee joints (articular cartilage, meniscus); experiment: Damage of knee joints in DSS induced IBD mice; assay type: in vivo; conditions: compared with untreated DSS mice
Text: In one embodiment, in DSS induced IBD mice, there was also a damage of knee joints. The articular cartilage structure became thinner and partially destroyed. The chondrocytes were degenerated, decreased and clustered. The meniscuses were damaged and lost its structural integrity. In X-ray, the layer of articular cartilage was thinner and bone structure was decreased. […] The articular cartilage and bone structure increased toward normal.

[5] = tested on: DNCB induced allergic contact dermatitis; experiment: DNCB induced allergic contact dermatitis model (eczema); assay type: in vivo, mice; conditions: oral 8 days, indomethacin 5 mg/kg
Procedure: Mice was shaved at abdominal area DNCB (100 μL 0.5%) is dissolved and applied to the shaved skin to induce Atopica dermatitis for 2 consecutive days. At day 8th, DNCB was applied to both inner and outer surfaces of ears to induce eczema. Treatment of R-salbutamol and indomethacin were given orally at day 1st for consecutive 8 days. The mice were scarified at day 9th for examination and evaluation. Mice were divided into four groups (n=8), namely A, Control; B. Eczema (DNCB); C. Eczema plus R-Salbutamol of 0.05, 0.1 or 0.2 mg/kg; D. Eczema plus indomethacin of 5 mg/kg. The inflammation scores were evaluated according to swelling, erythema, scratch and thickness of both ears. [table]

TNBS-induced colitis = TNBS-induced colitis (model for Crohn's disease); assay type: in vivo, Male mice; conditions: TNBS treated mice
Text: Male mice colitis was induced by rectal co-administration of ethanol and TNBS (Trinitrobenzenesulfonic acid). Severe colitis in mice that was characterized by weight loss and diarrhea. Histologically there were loss of normal structures, visible discrete epithelioid granuloma, multiple erosive lesions, massive transmural inflammation infiltration of lymphocytes, and the loss of goblet cells. […] There was significant alleviation of lesions, few inflammatory infiltration with growing crypts and recovery mucosa epithelia along the column. […] In addition, in TNBS treated colitis mice, there were perianal symptoms: erythema, abscesses and ulcers found in some mice, which may lead to perianal fissures or fistulas. […] The therapeutically effects of R-salbuterol, R-clenbuterol and R-bambuterol on the symptoms in TNBS induced Crohn's disease has never been reported in prior art.

[6] = acute DSS colitis, compared with untreated DSS mice
[7] = one week treatment, evaluation at 23rd day, R-S, S-S 1 mg/kg, R-B, S-B 10 mg/kg
[8] = sub-acute or chronic DSS colitis, compared with untreated DSS mice
[9] = R-Salbutamol 0.05, 0.1 or 0.2 mg/kg

Compound	Hist score (histological score) [1]	FOB (fecal occult blood) [1]	Weight [1]	DAI (disease active index) [1]	Col Length (colon length) [1]	histological index / histological score, in words [2, 8]	other results
C[C@@H]1C[C@H]2[C@@H]3CCC4=CC(=O)C=C[C@]4(C)[C@@]3(F)[C@@H](O)C[C@]2(C)[C@@]1(O)C(=O)CO [DEX, Dexamethasone]	6 ± 0.5	2.5 ± 0.5	88 ± 2.4	7	7.1 ± 0.2	–	–
CC(C)(C)NCC(O)c1cc(Cl)c(N)c(Cl)c1 (stereo not drawn) [RS-C, RS-clenbuterol]	6 ± 0.5	4 ± 0.1	87 ± 2	10	6.5 ± 0.2^	–	DAI, in words [1, 6]: much less improvement than DSS mice treated with R-clenbuterol; histological score, in words [1, 6]: better than DSS untreated but worse than R-enantiomer treated mice
CN(C)C(=O)Oc1cc(OC(=O)N(C)C)cc([C@H](O)CNC(C)(C)C)c1 [S-B, S-bambuterol]	7.5 ± 1^	2.5 ± 0.5	81 ± 3.2	12	6 ± 0.6	markedly higher than untreated DSS mice	colon histology (H&E), in words [1]: no signs of improvements; Col Length (colon length) [2, 7]: 6.8 ± 0.1; DAI (disease active index) [2, 7]: 12; FOB (fecal occult blood) [2, 7]: 3.9 ± 0.1; Hist score (histological score) [2, 7]: 6.9 ± 1^; Weight [2, 7]: 96 ± 1.1; length of colon-rectors, in words ([2]; sub-acute DSS colitis, compared with untreated DSS mice): shorter; body weights, in words ([2]; sub-acute or chronic DSS colitis): lower; fecal occult blood, in words ([2]; sub-acute or chronic DSS colitis, day 14th and 22nd, compared with untreated DSS mice): more severe; DAI, in words [3]: markedly higher than untreated DSS group; histological score, in words [3]: markedly higher than untreated DSS group; damage of articular cartilage, meniscus and bone structure of knee joints [4]: exacerbated
CC(C)(C)NC[C@@H](O)c1cc(O)cc(O)c1 [S-T, S-terbutaline]	7 ± 1	4 ± 0.5	80 ± 2.9	12	5.9 ± 0.5	much worse than untreated DSS mice	colon histology (H&E), in words [1]: no signs of improvements; DAI, in words [2, 8]: much worse than untreated DSS mice
CC(C)(C)NC[C@@H](O)c1cc(Cl)c(N)c(Cl)c1 [S-clenbuterol]	–	–	–	–	–	much worse than untreated DSS mice	DAI, in words [2, 8]: much worse than untreated DSS mice
COc1ccc2c(c1)c(CC(=O)O)c(C)n2C(=O)c1ccc(Cl)cc1 [indomethacin, reference compound]	–	–	–	–	–	–	erythema score of both ears [5, 9]: lesser effects; thickness score of both ears [5, 9]: lesser effects; eczema histology and inflammatory infiltration ([5]; dose-dependent response): little effects on eczema
infliximab	–	–	–	–	–	–	submucosa fibrosis and narrowing of intestinal lumen (TNBS-induced colitis): enhanced the submucosa fibrosis and lumen narrowing; submucosa fibrosis and narrowing of intestinal lumen (TNBS-induced colitis; listed as IFX): significant submucosa fibrosis and narrowing in lumen
